US20060013822A1, “Utilization of mhc class II binding motifs in immunization to produce immune, serum, monoclonal antibodies and vaccines” (priority 2002, published 2006)
Entries after “also recorded” stand apart in the source; their conditions may differ.

How the values were obtained:
C57B1/6J mice = assay: Antibody response in sera of immunized C57B1/6J mice, fluorescence ELISA for anti-TR3 binding antibodies; assay type: in vivo, mouse; conditions: immune sera collected after four weeks
Protocol: C57B1/6J mice were immunized with the native TR3 peptide 1-32 or with an altered TR3 sequence that contains a Threonine (T) to Phenylalanine (F) alteration at amino acid position 4 to introduce a known C57B1/6J MHC Class II binding motif. Immune sera were collected after four weeks and assessed for anti-TR3 binding antibodies by fluorescence ELISA.
(§1) The serum from rats immunized with TR3 peptide 1-32 were tested in a standard ELISA for epitope specificity. The protocol for ELISA has been described previously in (Tittle, Molecular Immunology 26:343-350, 1989), except that the substrate (methylumbelliferyl phosphate, MUP, Sigma-Aldrich, St. Louis, Mo.) was read fluorometrically rather than calorimetrically as with NPP (Nitrophenyl phosphate).
A T to F change in the sequence of TR3 at AA4 an H-2^b binding motif was generated and C57B1/6J mice were immunized with the native TR3 peptide or with the T-F variant peptide.

[1] = test system: Lymph node T cells from TR3 peptide 1-13 immune animals; assay: Standard T cell proliferation assay (3H-thymidine incorporation); assay type: cell-based, Lewis rat; conditions: T cells from TR3 peptide 1-13 immune Lewis rats with antigen presenting cells; after 48 hours in culture, 18 hour period
Protocol: Lymph node T cells from TR3 peptide 1-13 immune animals were cultured in the presence of antigen presenting cells and either TR3 peptide 1-13 or TR3 peptide 14-32. ^3H-thymidine incorporation was assessed after 48 hours in culture for an 18 hour period. The T cells responded in this standard T cell proliferation assay to TR3 peptide 1-13 but not to TR3 peptide 14-32. […] This implies that the missing component is a B cell epitope.
(§2) Two peptides were synthesized, TR3 peptide 1-13 and TR3 peptide 1-32. Both contain the binding motif but only one was long enough to have a portion hanging outside of the MHC Class II binding cleft. Lewis rats were immunized with one or the other of these peptides and sera tested for the presence of antibodies that would recognize the TR31-32 peptide before and after immunization.

Lewis rats = assay: Antibody response in sera of immunized Lewis rats, fluorescence ELISA on TR3 peptide coated plates; assay type: in vivo, Lewis rat; conditions: bled after six weeks; for antibody titer against TR3 peptide 1-32 in sera of rats immunized with the peptide: TR31-32 coated plates, before and after immunization
Protocol: Rats were immunized and rested for four weeks. Immune sera were assayed at 1:5000 and compared to pre-immune titers by fluorescence ELISA (see below) using TR3 peptide 1-32 coated plates.
Lewis rats were immunized with TR3 peptide 1-13 and after six weeks the animals were bled and sera tested for binding to TR31-13 or TR31-32 coated plates using fluorescence ELISA.
as §2, §1

| Substance | detectable anti-TR3 binding antibodies in immune sera of mice immunized with the peptide (C57B1/6J mice) | detectable anti-TR3 binding antibodies in immune sera of mice immunized with the peptide (C57B1/6J mice; listed as T-F variant peptide) | T cell proliferative response to the peptide in culture (3H-thymidine incorporation) [1] | antibody titer against TR3 peptide 1-13 in sera of rats immunized with the peptide (Lewis rats; TR31-13 coated plates) | antibody titer against TR3 peptide 1-32 in sera of rats immunized with the peptide (Lewis rats) | antibody titer against TR3 peptide 1-32 in sera of rats immunized with the peptide (Lewis rats; listed as TR3 peptide) |
| --- | --- | --- | --- | --- | --- | --- |
| QGGFRSPRCDCAGDFHKKIGLFCCRGCPAGHY (Altered TR3 peptide with MHC class II binding motif from amino acids 4 through 12.; listed as Homo sapiens) | made an anti-TR3 response | immunogenic and induced an antibody response | – | – | – | – |
| QGGTRSPRCDCAG (MEQRPRGCAAVAA) [TR3 peptide 1-13] | – | – | very strong T cell responses; also recorded: good T-cell response | No detectable antibody | No detectable antibody | no appreciable antibody titer |
| TR3 peptide 14-32: amino acids 14-32 of the TR-3 peptide, extended peptide shown to be the B cell epitope (ALLLVLLGARAQGGTRSPR) | – | – | not | – | – | – |
